Among the data in PubChem BioAssay (NCI) are TGI values, retold here.

Test systems include HCC-2998 colon; HCT-116 colon; SF-268 CNS; SNB-75 CNS; RXF 393 renal; CCRF-CEM leukemia; OVCAR-4 ovarian; SW-620 colon; SF-539 CNS; MOLT-4 leukemia; T-47D breast; PC-3 prostate.
What all share (assay): NCI tumour cell line growth inhibition, 48 h

SMILES strings stand for the structures.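 Cultured in 96-well plates, cells were exposed to test compound for 48 hours across five concentrations. TGI: concentration producing complete growth inhibition.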

For `Nc1c(S(=O)(=O)c2ccccc2)c2nc3ccccc3nc2n2c1nc1ccccc12`, the TGI is more than 100 µM in the experiment with HCC-2998 colon; more than 100 µM with HCT-116 colon; more than 72.9 µM in the experiment with SF-268 CNS; more than 51.1 µM in the experiment on SNB-75 CNS; more than 100 µM in the experiment on RXF 393 renal; more than 100 µM with CCRF-CEM leukemia. Besides, the TGI is more than 80.5 µM with OVCAR-4 ovarian, more than 100 µM in the experiment with SW-620 colon, more than 53.9 µM in the experiment with SF-539 CNS and more than 100 µM in the experiment on MOLT-4 leukemia.

`N[C@H](Cc1ccc2oc3cc(=O)c4ccccc4c-3nc2c1)C(=O)O`: the TGI in the experiment with T-47D breast was more than 100 µM; in the experiment on HCT-116 colon, more than 100 µM; in the experiment on SF-268 CNS it was more than 100 µM; with SNB-75 CNS it was more than 100 µM; in the experiment with RXF 393 renal it was more than 100 µM; in the experiment on CCRF-CEM leukemia, 56.2 µM. Besides, the TGI in the experiment on OVCAR-4 ovarian, in the experiment on SW-620 colon, in the experiment on SF-539 CNS and with MOLT-4 leukemia was more than 100 µM in each case.

Consider `Cc1ccc(NC(=O)C(=O)C2C(=O)NC(=O)NC2=O)cc1C`, for which the TGI with HCC-2998 colon, in the experiment on HCT-116 colon, in the experiment with SF-268 CNS, in the experiment on SNB-75 CNS, with RXF 393 renal and in the experiment on CCRF-CEM leukemia was more than 100 µM in each case. For the same molecule, the TGI with OVCAR-4 ovarian, with SW-620 colon, in the experiment with SF-539 CNS and in the experiment with MOLT-4 leukemia was more than 100 µM throughout.

As to `O=C1c2ccccc2C(=O)N1C/C=N/NS(=O)(=O)c1ccc(Br)cc1`, the TGI in the experiment on HCC-2998 colon, with HCT-116 colon, in the experiment on SF-268 CNS, in the experiment with SNB-75 CNS, in the experiment with CCRF-CEM leukemia and with OVCAR-4 ovarian was more than 100 µM in each case. For the same molecule, the TGI with SW-620 colon, in the experiment with SF-539 CNS and in the experiment with MOLT-4 leukemia was more than 100 µM throughout.

`Cc1cc(C)nc(NC(P(=O)(O)O)P(=O)(O)O)n1`: the TGI in the experiment on HCC-2998 colon, in the experiment on HCT-116 colon, with SF-268 CNS, with RXF 393 renal, with PC-3 prostate and with SF-539 CNS was more than 100 µM each time.

With `C[n+]1c2ccccc2c(NC(CCCN=C(N)N)C(=O)O)c2ccccc21` (configuration not stated), the TGI in the experiment with HCC-2998 colon, in the experiment with HCT-116 colon, with SF-268 CNS, in the experiment on SNB-75 CNS, in the experiment on RXF 393 renal and in the experiment with OVCAR-4 ovarian was more than 100 µM each time. Moreover, the TGI in the experiment with SW-620 colon, in the experiment with SF-539 CNS and with MOLT-4 leukemia was more than 100 µM each time.

As to `COc1ccc2nc3cc(Cl)ccc3c(Sc3ccc(NC(C)=O)cc3)c2c1`, the TGI in the experiment on HCC-2998 colon was 5.93 µM; in the experiment on HCT-116 colon, more than 45.3 µM; in the experiment on SF-268 CNS, more than 40 µM; in the experiment with SNB-75 CNS it was more than 54.9 µM; with RXF 393 renal, more than 27.9 µM; in the experiment with CCRF-CEM leukemia it was more than 100 µM. Moreover, the TGI in the experiment with OVCAR-4 ovarian is more than 52.6 µM; in the experiment on SW-620 colon, more than 22.3 µM; in the experiment on SF-539 CNS it was 27.3 µM; with MOLT-4 leukemia, 84.4 µM.

With `COc1cccc(-c2nc(-c3cnccn3)n(C/C=C/c3ccccc3)n2)c1`, the TGI with HCC-2998 colon, in the experiment with SF-268 CNS, with SNB-75 CNS, with PC-3 prostate, in the experiment on CCRF-CEM leukemia and in the experiment on OVCAR-4 ovarian was more than 10 µM throughout. Further, the TGI in the experiment on SW-620 colon, with SF-539 CNS and with MOLT-4 leukemia was more than 10 µM throughout.

Take `CCOC(=O)c1ccc(-c2ccc(Cl)cc2)[nH]1`: the TGI in the experiment with HCC-2998 colon, in the experiment on HCT-116 colon, in the experiment on SF-268 CNS, with SNB-75 CNS, with CCRF-CEM leukemia and in the experiment on OVCAR-4 ovarian was more than 10 µM in each case. The TGI with SF-539 CNS and with MOLT-4 leukemia was more than 10 µM throughout.

As to `COc1cc(-c2nnc3n2NC=C(C(=O)O)S3)cc(OC)c1OC`, the TGI in the experiment with HCC-2998 colon is more than 100 µM; in the experiment on HCT-116 colon it was more than 68.8 µM; with SF-268 CNS it was more than 100 µM; with SNB-75 CNS it was more than 100 µM; with RXF 393 renal, more than 100 µM; in the experiment with CCRF-CEM leukemia, more than 67.5 µM. In addition, the TGI with OVCAR-4 ovarian was more than 87.5 µM; in the experiment with SW-620 colon, more than 62 µM; in the experiment on SF-539 CNS, more than 61.4 µM; in the experiment on MOLT-4 leukemia, more than 100 µM.

With `O=C(NCCN1CCOCC1)c1ccc(I)cc1`, the TGI in the experiment on HCC-2998 colon, in the experiment on SF-268 CNS, in the experiment with SNB-75 CNS, in the experiment with PC-3 prostate, in the experiment on CCRF-CEM leukemia and in the experiment on OVCAR-4 ovarian was more than 100 µM in each case. The TGI in the experiment with SW-620 colon, in the experiment on SF-539 CNS and in the experiment with MOLT-4 leukemia was more than 100 µM in each case.

Take `COC(=O)C1=C(OC)[C@H]2C#C/C=C\C#C[C@@H]3Nc4c(cc(O)c5c4C(=O)c4ccccc4C5=O)[C@]24O[C@@]34[C@H]1C`: the TGI with HCC-2998 colon was less than 0.0135 µM; in the experiment on HCT-116 colon, 7.6 µM; in the experiment on SF-268 CNS, less than 0.0341 µM; with SNB-75 CNS it was less than 0.01 µM; with PC-3 prostate it was 0.138 µM; with CCRF-CEM leukemia it was less than 0.01 µM. Also, the TGI in the experiment on OVCAR-4 ovarian was 0.2 µM; in the experiment on SW-620 colon, 0.0486 µM; in the experiment on SF-539 CNS it was less than 0.01 µM; in the experiment on MOLT-4 leukemia, less than 0.01 µM.

`c1ccc2c(c1)OCCOCCOc1ccccc1OCCO2`: the TGI in the experiment on HCT-116 colon, in the experiment with SF-268 CNS, in the experiment on SNB-75 CNS, in the experiment with RXF 393 renal, in the experiment with CCRF-CEM leukemia and in the experiment with OVCAR-4 ovarian was more than 100 µM each time. Besides, the TGI in the experiment on SW-620 colon was 77.1 µM; in the experiment on SF-539 CNS, more than 100 µM; with MOLT-4 leukemia, more than 100 µM.

For `CSc1ccc2c(cc1=O)[C@@H](NC(=O)c1cc(O)c(O)c(O)c1)CCc1cc(O)c(O)c(O)c1-2`, the TGI was more than 100 µM in the experiment with HCC-2998 colon; 29.4 µM in the experiment on HCT-116 colon; more than 100 µM in the experiment with SF-268 CNS; 53.7 µM in the experiment on SNB-75 CNS; 18.1 µM with CCRF-CEM leukemia; 22.7 µM in the experiment with OVCAR-4 ovarian. Further, the TGI with SW-620 colon is 39.6 µM; with SF-539 CNS it was 52.3 µM; with MOLT-4 leukemia, 45.6 µM.

Take `COc1ccc(/C=N/N=C(\N)NO)c(OC)c1C`: the TGI with HCC-2998 colon is 22.1 µM; with HCT-116 colon, more than 100 µM; in the experiment on SF-268 CNS, more than 100 µM; with RXF 393 renal it was 69.8 µM; in the experiment with CCRF-CEM leukemia, more than 100 µM; with OVCAR-4 ovarian it was more than 100 µM. For the same molecule, the TGI in the experiment on SW-620 colon is more than 100 µM; in the experiment on SF-539 CNS, 54.1 µM; with MOLT-4 leukemia, more than 100 µM.

As for `CCOC(=O)CCC(NC(=O)c1ccc(NCc2ccc3nc(-c4ccccc4)c(Cl)nc3c2)cc1)C(=O)OCC` (configuration not stated), the TGI in the experiment with HCC-2998 colon, in the experiment with HCT-116 colon, in the experiment on SF-268 CNS, in the experiment on SNB-75 CNS, with RXF 393 renal and in the experiment on CCRF-CEM leukemia was more than 100 µM each time. For the same molecule, the TGI in the experiment with OVCAR-4 ovarian was 90.6 µM; in the experiment on SW-620 colon it was more than 100 µM; in the experiment on SF-539 CNS, more than 100 µM; in the experiment on MOLT-4 leukemia, 44.9 µM.

As to `NC(=O)c1cn(Cc2ccccc2)c(=O)n1Cc1ccccc1`, the TGI in the experiment with HCC-2998 colon, with HCT-116 colon, with SF-268 CNS, in the experiment with SNB-75 CNS, with RXF 393 renal and in the experiment with CCRF-CEM leukemia was more than 100 µM each time. For the same molecule, the TGI with OVCAR-4 ovarian, in the experiment with SW-620 colon, in the experiment with SF-539 CNS and with MOLT-4 leukemia was more than 100 µM each time.

As for `CC(=O)O[C@]12CCCCCC1C1(O)C(O)CCCCC12` (some centres not stated), the TGI in the experiment with SF-268 CNS, in the experiment on SNB-75 CNS, in the experiment with RXF 393 renal, in the experiment on CCRF-CEM leukemia, in the experiment on OVCAR-4 ovarian and with SW-620 colon was more than 100 µM in each case. For the same molecule, the TGI in the experiment on MOLT-4 leukemia was more than 100 µM.

As to `C1COCCSC2=C(SCCO1)SC(=C1SC3=C(SCCOCCOCCS3)S1)S2`, the TGI in the experiment on HCC-2998 colon was more than 100 µM; with HCT-116 colon it was more than 100 µM; in the experiment on SF-268 CNS, more than 100 µM; in the experiment on SNB-75 CNS, 51.4 µM; in the experiment on RXF 393 renal, more than 100 µM; with CCRF-CEM leukemia it was more than 100 µM. In addition, the TGI in the experiment on OVCAR-4 ovarian, in the experiment with SW-620 colon, with SF-539 CNS and in the experiment with MOLT-4 leukemia was more than 100 µM in each case.

Regarding `C1=NC(N(Cc2ccccc2)Cc2ccccc2)N(Cc2ccccc2)N1` (configuration not stated), the TGI in the experiment with HCC-2998 colon is 36.4 µM; in the experiment on HCT-116 colon it was 21.3 µM; in the experiment with SF-268 CNS it was 47.4 µM; with SNB-75 CNS it was 62.8 µM; in the experiment on RXF 393 renal, 30.4 µM; with CCRF-CEM leukemia, more than 100 µM. Also, the TGI in the experiment with OVCAR-4 ovarian was 36.7 µM; with SW-620 colon, 49.9 µM; in the experiment on SF-539 CNS it was 29.5 µM; in the experiment with MOLT-4 leukemia it was more than 100 µM.

With `C=C1CC[C@H]2C(=O)OC(c3ccoc3)C[C@]2(C)C/C=C\C=C/1C(=O)OC` (some centres not stated), the TGI in the experiment on HCC-2998 colon, in the experiment on HCT-116 colon, with SNB-75 CNS, with RXF 393 renal, with PC-3 prostate and with OVCAR-4 ovarian was more than 25 µM in each case. Also, the TGI in the experiment on SW-620 colon and in the experiment with SF-539 CNS was more than 25 µM throughout.
